The record followed here is the METLIN SMRT retention time set (Domingo-Almenara et al. 2019).

The data set in a line: gradient 5% acetonitrile 3 min, to 50% in 2 min, to 85% in 15 min, held 3 min, 100 µL/min. The following applies: column: Zorbax Extend-C18 2.1 x 50 mm; eluents: water / acetonitrile, 0.1% formic acid. Put shortly:
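Each retention time is based on an adduct peak selected computationally and verified by manual inspection. Measurements used HPLC–quadrupole time-of-flight mass spectrometry in positive and negative ionization mode on mixtures of ~100 pure standards. Chromatography ran on a Zorbax Extend-C18 column (2.1 × 50 mm, 1.8 μm) at 100 μL/min with water and acetonitrile, each containing 0.1% formic acid, and dead and dwell volumes of 40 μL and 900 μL.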
In the case of `COc1ncc(C(=O)N2CCc3ccccc3C2)cn1`, the RP-LC retention time is 729 s.
In the case of `Cc1cc(C(=O)Nc2ccccc2F)nc2cc(-c3cccs3)nn12`, the RP-LC retention time worked out at 1300 s.
In the case of `CCc1noc(NC(C)=O)c1-c1ccc(C)c(S(=O)(=O)NCc2ccco2)c1` it was 766 s.
In the case of `CCc1noc(NC(C)=O)c1-c1ccc(OC)c(S(=O)(=O)Nc2ccc(S(N)(=O)=O)cc2)c1` it was 655 s.
In the case of `O=C(Nc1ccc2c(c1)OCO2)N1CCC2(CC1)Nc1cc(F)ccc1-n1cccc12` it was 1000 s; in that of `Cc1ccccc1OCC(=O)N1CCN(C2=CC3=NCC(C)N3C=N2)CC1` (stereo not given), 644 s; in that of `COc1ccc(-c2cc3c(=O)n(Cc4nc(-c5ccccc5OC)oc4C)ccn3n2)cc1OC`, 990 s.
`COc1ccccc1-c1nc2cnccn2c1NCCC(=O)N(C)C`: the RP-LC retention time is 596 s.
In the case of `COc1ccc(NC(=O)c2cc(C)n3nc(-c4ccsc4)cc3n2)cc1` it was 1120 s.
In the case of `O=C(Cn1c(=O)c(=O)n(Cc2ccncc2)c2ncccc21)NC1CCCCCCC1` it was 646 s.
In the case of `CCOC(=O)N1CCN(C(=O)Cn2c(-c3ccccn3)nc3ccccc32)CC1` it was 643 s; in that of `CCn1cc(C)c(C(=O)O)c1CC(=O)NCCc1ccc(C)cc1`, 842 s.
`Cc1cc(C)cc(C(=O)NCc2ccc3c(c2)nnn3C)c1` showed an RP-LC retention time of 755 s.
In the case of `COc1cc(-c2nnc(SCc3c(F)cccc3Cl)o2)cc(OC)c1OC` it was 1070 s; in that of `COc1ccc(OC)c(CNC(=O)C2CCN(C(=O)C3Sc4ccccc4NC3=O)CC2)c1` (stereo not given), 743 s; in that of `Cc1cc(C(=O)Nc2ccc(-c3ccn[nH]3)cc2)c(C)o1`, 716 s.
In the case of `O=C(O)c1ccc(N2CCCCC2)cc1O` it was 828 s.
For the compound `Cc1nn(CC(=O)NCCCN2CCCC2)c(=O)c2nn(-c3ccccc3)c(C)c12`, the RP-LC retention time was found to be 597 s.
In the case of `Cc1noc(-c2ccc(OC3CN(C(=O)c4cccc5[nH]ccc45)C3)cc2)n1` it was 597 s; in that of `Cc1c(C(=O)N2CCCCCC2)sc2ncn(CC(=O)N3CC(C)CC(C)C3)c(=O)c12` (stereo not given), 891 s; in that of `COc1ccc(-c2ccc(=O)n(CCCC(=O)Nc3ccccc3C(N)=O)n2)cc1OC`, 619 s.
Consider `Cc1c(F)cccc1NC(=O)Nc1ccc2nncn2c1`, for which the RP-LC retention time is 660 s.
For the compound `Fc1cccc(-c2noc(Cc3nc(-c4ccccc4Cl)cs3)n2)c1`, the RP-LC retention time worked out at 1260 s.
In turn, `Cc1noc(CNC(=O)C2CCN(C(=O)Cc3cn(C)c4ccccc34)CC2)n1` had an RP-LC retention time of 656 s.
In the case of `CCn1cc(C)c(C(=O)O)c1CC(=O)NCc1ccc2c(c1)OCO2` it was 734 s.
Compound `O=C(NC1CC1)c1cc(N2CCCC2)nc2ccc(F)cc12` gave an RP-LC retention time of 600 s.
In turn, `CCOc1ccccc1NC(=O)Cn1nc2n(c1=O)CCCCC2` had an RP-LC retention time of 766 s.
In the case of `CN(C)C[C@@H]1CN(c2ccncn2)C[C@H]1NC(=O)c1ccc2ncccc2c1` it was 652 s; in that of `CCc1nn2c(CNC(=O)c3ccccc3)c(-c3ccccc3)nc2s1`, 870 s; in that of `CC(C)(CO)NC(=O)Cc1ccc(NS(=O)(=O)/C=C/c2ccccc2)cc1`, 686 s.
In the case of `CC(=O)c1ccc(S(=O)(=O)N2CCCC(C)(C(=O)NCc3ccc(F)cc3)C2)cc1` (stereo not given) it was 876 s.
`CCc1nncn1C1CCN(S(=O)(=O)c2ccc(C)c(C)c2)CC1`: the RP-LC retention time amounted to 731 s.
In turn, `Cc1ccc2oc(-c3nnc(C(=O)NCCN4CCOCC4)o3)c(C)c2c1` returned an RP-LC retention time of 667 s.
In the case of `CCCN1CCN(c2ccc(NC(=O)C(C)(C)C)c(C(=O)O)c2)CC1` it was 611 s; in that of `COc1cccc(CNC(=O)c2nnc(-c3ccc(S(=O)(=O)N(C)C)cc3)o2)c1`, 827 s; in that of `CNC(=O)c1nn(C)c2c1C(C)(C)Cc1cnc(Nc3ccc(N4CCN(C)CC4)cc3)nc1-2`, 656 s.
In the case of `Nc1ncnc(N2CCN(C(c3ccccc3)c3ccccc3)CC2)c1[N+](=O)[O-]` it was 698 s; in that of `COc1cc(NC(=O)N2CCC(OC3CCN(S(C)(=O)=O)CC3)CC2)cc(OC)c1`, 704 s; in that of `CCOc1ccc(NC(=O)N2c3ccccc3CC2c2nc(C3CC3)no2)cc1` (stereo not given), 982 s.
In the case of `O=C(Nc1ccc(F)cc1F)c1noc2c1CCCC2` it was 883 s.
In the case of `Cc1noc(-c2nc(-c3ccc(OC(C)C)cc3)no2)n1`, the RP-LC retention time worked out at 1120 s.
As to `CCc1cc(C(=O)Nc2ccc(OC)cc2)nc2ccnn12`, the RP-LC retention time came to 917 s.
In the case of `COCc1nc(-c2ccc(OC3CCN(Cc4ccc(C(F)(F)F)cc4)C3)cc2)no1` (stereo not given) it was 751 s; in that of `O=C(NCCN1CCCC1)c1nnc(-c2ccc(S(=O)(=O)N3CCCC3)cc2)o1`, 602 s.
In the case of `Cc1ccc(N2CC(c3noc(-c4ccc(Cl)cc4)n3)CC2=O)cc1` (stereo not given) it was 1110 s; in that of `Cc1csc(NC(=O)c2ccc(N3CCCC3)nn2)n1`, 626 s; in that of `O=C(Nc1ccc(OCc2nnc(-c3ccccc3)o2)cc1)c1cnccn1`, 832 s.
In the case of `O=C(NC1CCCCCC1)c1cccnc1N1CCNC(c2ccccc2)C1` (stereo not given) it was 656 s.
On to `Cc1cc2nc(C(F)(F)F)c(=O)n(C(C)C(=O)NCCCN3CCN(C)CC3)c2cc1C` (stereo not given), for which the RP-LC retention time is 652 s.
In the case of `COC(=O)c1ccc(NC(=O)Cc2csc(Nc3ccc(F)cc3)n2)cc1` it was 838 s; in that of `COc1cccc(N2CCN(S(=O)(=O)c3cc(-c4nc(C(C)C)cs4)cs3)CC2)c1`, 1310 s.
In the case of `O=C1CC[C@@]2(O)C3Cc4ccc(O)c5c4C2(CCN3CC2CC2)[C@H]1O5` (stereo not given in full) it was 599 s; in that of `O=C(NCc1ccco1)c1ccc2c(c1)CCCN2S(=O)(=O)c1ccccc1`, 914 s; in that of `Cc1nn(-c2ccccc2)c(C)c1/C=N/N1CCN(Cc2ccccc2)CC1`, 687 s.
Compound `Cc1ccc(-c2nc(C(=O)N3CCN(c4ccccc4)CC3)cs2)n1C` showed an RP-LC retention time of 1080 s.
In the case of `CC(C)Cn1cc(CCNS(=O)(=O)c2ccc(Br)cc2)c2cccnc21` it was 998 s.
As to `Cc1ccc(NC(=O)c2cc(C(C)C)n3nccc3n2)c(C)c1`, the RP-LC retention time is 1200 s.
The compound `CN(CC1(C)CCOCC1)S(=O)(=O)c1cc(F)ccc1F` yielded an RP-LC retention time of 614 s.
The compound `Cc1ccc(C2c3[nH]c4ccccc4c3CCN2C(=O)c2cccs2)cc1` (stereo not given) had an RP-LC retention time of 1200 s.
For `Cc1cccc(C)c1NC(=O)Cn1nc2c(Oc3cccc(F)c3)nccn2c1=O`, the RP-LC retention time was 825 s.
